Assay: CHI Log D procedure
Format: physicochemical
Details: for chromatographic logD: pH 7.4, CHI Log D; for CHI Log D: pH 7.4

| chromatographic logD | CHI Log D | SMILES |
| --- | --- | --- |
| 1.18 |  | CC(=O)N[C@@H](Cc1ccccc1)C(=O)N[C@@H](CC(=O)O)C(=O)N[C@]1(C)CCN(C)C(=O)OCC=CCCCCC[C@@](C)(C(=O)N[C@@H](C)C(=O)N[C@@H](Cc2ccccc2)C(=O)N[C@@H](Cc2c[nH]c3ccccc23)C(=O)N[C@@H](CCC(N)=O)C(N)=O)NC(=O)[C@H](Cc2ccccc2)NC(=O)[C@H](C)NC(=O)[C@H](C)NC(=O)[C@H](CC(=O)O)NC(=O)[C@H](CC(=O)O)NC(=O)[C@H](C)NC1=O (single isomer, unassigned) [I-49, Ac-Phe-Asp-RdN-Ala-Asp-Asp-Ala-Ala-Phe-S7-Ala-Phe-Trp-Gln-NH2] |
| 2.1 |  | CC(=O)N[C@@H](Cc1ccccc1)C(=O)N[C@@H](CC(=O)O)C(=O)N[C@@H](C)C(=O)N[C@]1(C)CCCCCCC=CCOC(=O)N2CC[C@@](C(=O)N[C@@H](Cc3ccccc3)C(=O)N[C@@H](Cc3c[nH]c4ccccc34)C(=O)N[C@@H](CCC(N)=O)C(N)=O)(C2)NC(=O)[C@H](C(C)C)NC(=O)[C@H](Cc2ccccc2)NC(=O)[C@H](C)NC(=O)[C@H](C)NC(=O)[C@H](CCC(C)C)NC(=O)[C@H](CC(=O)O)NC1=O (single isomer, unassigned) [I-17, Ac-Phe-Asp-Ala-R8-Asp-hLeu-Ala-Ala-Phe-Val-PyrS-Phe-Trp-Gln-NH2] |
| 1.61 |  | CC[C@H](C)[C@H](NC(=O)[C@H](CC(=O)O)NC(=O)[C@H](C)NC(C)=O)C(=O)N[C@]1(C)CCN(C)C(=O)OCC=CCCCCC[C@@](C)(C(=O)N[C@@H](Cc2ccccc2)C(=O)N[C@@H](Cc2c[nH]c3ccccc23)C(=O)N[C@@H](Cc2c[nH]cn2)C(N)=O)NC(=O)[C@H](CCC(N)=O)NC(=O)[C@H](Cc2ccccc2)NC(=O)[C@H](C)NC(=O)[C@H](C)NC(=O)[C@H](CCC(C)C)NC(=O)[C@H](CC(=O)O)NC1=O (single isomer, unassigned) [I-70, Ac-Ala-Asp-Ile-RdN-Asp-hLeu-Ala-Ala-Phe-Gln-S7-Phe-Trp-His-NH2] |
| 1.21 |  | CC(=O)N[C@@H](Cc1ccccc1)C(=O)N[C@@H](CC(=O)O)C(=O)N[C@@H](C)C(=O)N[C@]1(C)CN(C)C(=O)OCC=CCCCCC[C@@](C)(C(=O)N[C@@H](Cc2ccccc2)C(=O)N[C@@H](Cc2c[nH]c3ccccc23)C(=O)N[C@@H](CCC(N)=O)C(N)=O)NC(=O)[C@H](C(C)C)NC(=O)[C@H](Cc2ccccc2)NC(=O)[C@H](C)NC(=O)[C@H](C)NC(=O)[C@H](CC(=O)O)NC(=O)[C@H](CC(=O)O)NC1=O (single isomer, unassigned) [I-45, Ac-Phe-Asp-Ala-RgN-Asp-Asp-Ala-Ala-Phe-Val-S7-Phe-Trp-Gln-NH2] |
| 1.27 |  | CC(=O)N[C@@H](Cc1ccccc1)C(=O)N[C@@H](CC(=O)O)C(=O)N[C@@H](C)C(=O)N[C@]1(C)CCN(C)C(=O)OCC=CCCCCC[C@@](C)(C(=O)N[C@@H](Cc2ccccc2)C(=O)N[C@@H](Cc2c[nH]c3ccccc23)C(=O)N[C@@H](CCC(N)=O)C(N)=O)NC(=O)[C@H](C(C)C)NC(=O)[C@H](Cc2ccccc2)NC(=O)[C@H](C)NC(=O)[C@H](C)NC(=O)[C@H](CC(=O)O)NC(=O)[C@H](CC(=O)O)NC1=O (single isomer, unassigned) [I-1, Ac-Phe-Asp-Ala-RdN-Asp-Asp-Ala-Ala-Phe-Val-S7-Phe-Trp-Gln-NH2] |

More lines, now with the values behind:

| SMILES | chromatographic logD | CHI Log D |
| --- | --- | --- |
| CC(=O)N[C@@H](Cc1ccccc1)C(=O)N[C@@H](CC(=O)O)C(=O)N[C@@H](C)C(=O)N[C@]1(C)CCCCCCC=CCOC(=O)N2CC[C@@](C(=O)N[C@@H](Cc3ccccc3)C(=O)N[C@@H](Cc3c[nH]c4ccccc34)C(=O)N[C@@H](CCC(N)=O)C(N)=O)(C2)NC(=O)[C@H](C(C)C)NC(=O)[C@H](Cc2ccc(C(N)=O)cc2)NC(=O)[C@H](C)NC(=O)[C@H](C)NC(=O)[C@H](CC(=O)O)NC(=O)[C@H](CC(=O)O)NC1=O [I-92, Ac-Phe-Asp-Ala-R8-Asp-Asp-Ala-Ala-4CBMF-Val-PyrS-Phe-Trp-Gln-NH2] |  | 1.199 |
| CC(=O)N1CCC[C@]12CC=CCCCC1(CCCC=CCCCCCC[C@@](C)(C(=O)N[C@@H](Cc3ccccc3)C(=O)N[C@@H](Cc3c[nH]c4ccccc34)C(=O)N[C@@H](CCC(N)=O)C(N)=O)NC(=O)[C@H](C(C)C)NC(=O)[C@H](Cc3cccc(F)c3)NC(=O)[C@H](C)NC(=O)[C@H](C)NC(=O)[C@H](CC(=O)O)NC(=O)[C@H](CC(=O)O)NC1=O)NC(=O)[C@H](C)NC(=O)[C@H](CC(=O)O)NC2=O (stereo partly drawn) [I-264, Ac-PL3-Asp-Ala-B5-Asp-Asp-Ala-Ala-3FF-Val-S8-Phe-Trp-Gln-NH2] |  | 2.011 |
| CC(=O)N[C@@H](Cc1ccccc1)C(=O)N[C@@H](CC(=O)O)C(=O)N[C@@H](C)C(=O)N[C@]1(C)CCCCCCC=CCOC(=O)N2CC[C@@](C(=O)N[C@@H](CCC(=O)O)C(=O)N[C@@H](Cc3c[nH]c4ccccc34)C(=O)N[C@@H](CCC(N)=O)C(N)=O)(C2)NC(=O)[C@H](C(C)C)NC(=O)[C@H](Cc2ccccc2)NC(=O)[C@H](C)NC(=O)[C@H](C)NC(=O)[C@H](CC(=O)O)NC(=O)[C@H](CC(=O)O)NC1=O (single isomer, unassigned) [I-161, Ac-Phe-Asp-Ala-R8-Asp-Asp-Ala-Ala-Phe-Val-PyrS-Glu-Trp-Gln-NH2] | 0.816 |  |
| CC(=O)N1CCC[C@]12CC=CCCCC1(CCCC=CCCCCCC[C@@](C)(C(=O)N[C@@H](Cc3ccccc3)C(=O)N[C@@H](Cc3c[nH]c4ccccc34)C(=O)N[C@@H](CCC(N)=O)C(N)=O)NC(=O)[C@H](C(C)C)NC(=O)[C@H](Cc3ccccc3)NC(=O)[C@H](C)NC(=O)[C@H](C)NC(=O)[C@H](CCC(=O)O)NC(=O)[C@H](CC(=O)O)NC1=O)NC(=O)[C@H](C)NC(=O)[C@H](Cc1cccc(C)c1)NC2=O (stereo partly drawn) [I-203, Ac-PL3-3MeF-Ala-B5-Asp-Glu-Ala-Ala-Phe-Val-S8-Phe-Trp-Gln-NH2] | 3.09 |  |
| CC(=O)N[C@@H](Cc1ccccc1)C(=O)N[C@@H](CC(=O)O)C(=O)N[C@@H](C)C(=O)N[C@]1(C)CCCCCCC=CCOC(=O)N2CC[C@@](C(=O)N[C@@H](Cc3ccccc3)C(=O)N[C@@H](Cc3c[nH]c4ccccc34)C(=O)N[C@@H](CCC(N)=O)C(N)=O)(C2)NC(=O)[C@H](C(C)C)NC(=O)[C@H](Cc2ccccc2)NC(=O)[C@H](C)NC(=O)[C@H](C)NC(=O)[C@H](CC2CCCCC2)NC(=O)[C@H](CC(=O)O)NC1=O (single isomer, unassigned) [I-16, Ac-Phe-Asp-Ala-R8-Asp-Cha-Ala-Ala-Phe-Val-PyrS-Phe-Trp-Gln-NH2] |  | 2.21 |
| COc1cccc(C[C@H](NC(=O)[C@]23CCN(C2)C(=O)OCC=CCCCCCC[C@@](C)(NC(=O)[C@H](C)NC(=O)[C@H](CC(=O)O)NC(=O)[C@H](Cc2ccccc2)NC(C)=O)C(=O)N[C@@H](CC(=O)O)C(=O)N[C@@H](CC(=O)O)C(=O)N[C@@H](C)C(=O)N[C@@H](C)C(=O)N[C@@H](Cc2ccccc2)C(=O)N[C@@H](C(C)C)C(=O)N3)C(=O)N[C@@H](Cc2c[nH]c3ccccc23)C(=O)N[C@@H](CCC(N)=O)C(N)=O)c1 (single isomer, unassigned) [I-101, Ac-Phe-Asp-Ala-R8-Asp-Asp-Ala-Ala-Phe-Val-PyrS-3OMeF-Trp-Gln-NH2] | 1.33 |  |
| CC(=O)N1CCC[C@]12CC=CCCCC1(CCCC=CCCCCCC[C@@](C)(C(=O)N[C@@H](Cc3ccccc3)C(=O)N[C@@H](Cc3c[nH]c4ccccc34)C(=O)N[C@@H](CCC(N)=O)C(N)=O)NC(=O)[C@H](C(C)C)NC(=O)[C@H](Cc3ccccc3)NC(=O)[C@H](C)NC(=O)[C@H](C)NC(=O)[C@H](Cc3cccc4ccccc34)NC(=O)[C@H](CC(=O)O)NC1=O)NC(=O)[C@H](C)NC(=O)[C@H](CC(=O)O)NC2=O (stereo partly drawn) [I-234, Ac-PL3-Asp-Ala-B5-Asp-1NapA-Ala-Ala-Phe-Val-S8-Phe-Trp-Gln-NH2] | 3.03 |  |
| CC(=O)N[C@@H](Cc1ccccc1)C(=O)N[C@@H](CC(=O)O)C(=O)N[C@@H](C)C(=O)N[C@]1(C)CCCCCCC=CCOC(=O)N2CC[C@@](C(=O)N[C@@H](Cc3ccccc3)C(=O)N[C@@H](Cc3c[nH]c4ccccc34)C(=O)N[C@@H](CCC(N)=O)C(N)=O)(C2)NC(=O)[C@H](C(C)C)NC(=O)[C@H](Cc2ccccc2)NC(=O)[C@H](CCC(=O)O)NC(=O)[C@H](C)NC(=O)[C@H](CC(=O)O)NC(=O)[C@H](CC(=O)O)NC1=O (single isomer, unassigned) [I-21, Ac-Phe-Asp-Ala-R8-Asp-Asp-Ala-Glu-Phe-Val-PyrS-Phe-Trp-Gln-NH2] | 0.92 |  |
| CC(=O)N1CCC[C@]12CC=CCCCC1(CCCC=CCCCCCC[C@@](C)(C(=O)N[C@@H](Cc3ccccc3)C(=O)N[C@@H](Cc3c[nH]c4ccccc34)C(=O)N[C@@H](CCC(N)=O)C(N)=O)NC(=O)[C@H](C(C)C)NC(=O)[C@H](Cc3ccccc3)NC(=O)[C@H](C)NC(=O)[C@H](C)NC(=O)[C@H](CCc3ccccc3)NC(=O)[C@H](CC(=O)O)NC1=O)NC(=O)[C@H](C)NC(=O)[C@H](CC(=O)O)NC2=O (stereo partly drawn) [I-195, Ac-PL3-Asp-Ala-B5-Asp-hPhe-Ala-Ala-Phe-Val-S8-Phe-Trp-Gln-NH2] | 2.98 |  |
| CC(=O)N[C@@H](Cc1ccccc1)C(=O)N[C@@H](CC(=O)O)C(=O)N[C@@H](C)C(=O)N[C@]1(C)CCCCCCC=CCOC(=O)N2CC[C@@](C(=O)N[C@@H](Cc3ccccc3)C(=O)N[C@@H](Cc3c[nH]c4ccccc34)C(=O)N[C@@H](CCC(N)=O)C(N)=O)(C2)NC(=O)[C@H](C(C)C)NC(=O)[C@H](Cc2ccccc2)NC(=O)[C@H](C)NC(=O)[C@H](C)NC(=O)[C@H](CCC(N)=O)NC(=O)[C@H](CC(=O)O)NC1=O [I-59, Ac-Phe-Asp-Ala-R8-Asp-Gln-Ala-Ala-Phe-Val-PyrS-Phe-Trp-Gln-NH2] |  | 1.531 |
| CC[C@H](C)[C@@H]1NC(=O)[C@H](CC(=O)O)NC(=O)[C@]2(CC=CCCCC3(CCCC=CCCCCCC[C@@](C)(C(=O)N[C@@H](Cc4ccccc4)C(=O)N[C@@H](Cc4csc5ccccc45)C(=O)N[C@@H](CCC(N)=O)C(N)=O)NC(=O)[C@H](CCC(N)=O)NC(=O)[C@H](Cc4ccccc4)NC(=O)[C@H](C)NC(=O)[C@H](C)NC(=O)[C@H](CCC(=O)O)NC(=O)[C@H](CNS(=O)(=O)C(F)(F)F)NC3=O)NC1=O)CCCN2C(C)=O (stereo partly drawn) [I-630, Ac-PL3-Asp-Ile-B5-[Tf]Dap-Glu-Ala-Ala-Phe-Gln-S8-Phe-BztA-Gln-NH2] |  | 4.36 |
